Measured values as given in patent publication US11207301B2, “Sphingosine 1 phosphate receptor agonists for neuroprotection” (RECEPTOS LLC, priority 2017, dated 2021).

Legend:
Format in all cases: cell-based
[1] = tested on: primary rodent astrocytes; assay: Primary rodent astrocytes in vitro, resting and LPS-activated
Protocol: In addition, the effects of ozanimod on the CNS were examined in vivo using the cuprizone-induced mouse model of demyelination and in vitro in primary rodent astrocytes. Efficacy of ozanimod or compound (2-R) was examined in the cuprizone-induced mouse model of neuroprotection. C57BL/6 mice were treated with cuprizone (0.3% weight/weight orally) and rapamycin (10 mg/kg intraperitoneally daily) to demyelinate axons in the brain and concurrently treated with ozanimod (0.1, 0.3, or 1 mg/kg) or compound (2-S) (1 mg/kg) by daily oral gavage to investigate its neuroprotective activity. Neuroprotection was assessed through examination of axonal pathology in the corpus callosum using SMI-32 (antineurofilament H non-phosphorylated mouse monoclonal antibody) staining, functional assessment through kinematic gait analysis and the plasma biomarker neurofilament light chain (NfL). Further, direct activity of ozanimod was examined in resting and activated primary rodent astrocytes in vitro.

[2] = tested on: AKT phosphorylation in primary mouse astrocytes; assay: AKT phosphorylation in primary mouse cortical astrocytes (AlphaLISA SureFire Ultra); details: Astrocyte, 10 min, 10-minute exposure, mean of n=3
Protocol: (§1) For the experiments using mouse and human primary astrocytes, ten-point concentration-response curves (90 nM-4.57 pM or 30 nM-1.52 pM) were generated for AKT and/or ERK phosphorylation in primary human and mouse cortical astrocytic cultures in response to a 10-minute treatment with ozanimod, Compound 3, Compound 1, or FTY720-P. AKT and ERK phosphorylation were quantified using AlphaLISA SureFire Ultra Assay kits and the EnVision Plate Reader. AKT and ERK phosphorylation within treated astrocytes were expressed as the mean change in signal intensity compared to the dimethyl sulfoxide (DMSO) vehicle and the half maximal effective concentration (EC50) was determined using non-linear regression.
(§2) Timed pregnant (E16) C57BL/6J female mice arrive to the test facility on a weekly basis and were housed and cared for according to appropriate protocols for this model. Primary mouse cortical astrocytes are harvested from P0-P2 pups. The newly born animals were deeply anesthetized on ice, decapitated, and the brains were rapidly removed and stored in ice-cold NbAstro media (BrainBits, LLC). Cells were dissociated from freshly dissected cortices by mechanical disruption in the presence of trypsin and DNase. Cells were put into a PDL coated T75 tissue culture flask containing 16 mL NbAstro Media and incubated at 37° C. 5% CO2. Once the mouse astrocytes had reached confluency in the T75 flask, they were detached using TripLE detachment reagent, pelleted at 300×g, expanded into two T225 PDL coated tissue culture flasks containing 40 mL of NbAstro and incubated at 37° C. 5% CO2. Once the astrocytes reached confluency in the T225 flasks they were detached using TrypLE detachment reagent, pelleted at 300×g, plated into PDL coated 96-well plates at a density of 10,000 cells per well in 200 μL NbAstro and incubated at 37° C. 5% CO2. Half of the media was replenished every 3-4 days. After 5-7 days of incubation, the P2 mouse astrocyte plates were utilized for the pERK and pAKT assays.
Cell lysis and detection of pAKT were performed according to the PerkinElmer AlphaLISA SureFire Ultra pAKT1/2/3 ([…]) assay protocol. Astrocytes were lysed in the 96-well plate following a 10 minute incubation with compounds with shaking at room temperature (RT). The astrocytic lysates (10 μL/well) were transferred into a 384-well OptiPlate. As specified by the assay protocol, an acceptor bead mix and a donor bead mix (5 μL/well for each) were added to the plate under subdued light. […] The plates were read on the EnVision Plate Reader to assess the pAKT levels.
(§3) The AKT and ERK phosphorylation data, collected by a Perkin Elmer EnVision Microplate Reader, was analyzed by non-linear regression (GraphPad Prism, version 7.03) to determine the EC50 values.

[3] = tested on: ERK phosphorylation in primary mouse astrocytes; assay: ERK phosphorylation in primary mouse cortical astrocytes (AlphaLISA SureFire Ultra); details: Astrocyte, 10 min, 10-minute exposure
Protocol: as §1
as §2, with “Once the astrocytes reached confluency in the T225 flasks they were detached using TrypLE detachment reagent, pelleted at 300×g, plated into PDL coated 96-well plates at a density of 10,000 cells per well in 200 μL NbAstro and incubated at 37° C. 5% CO2. Half of the media was replenished every 3-4 days. After 5-7 days of incubation, the P2 mouse astrocyte plates were utilized for the pERK and pAKT assays.” left out
Cell lysis and detection of pERK were performed according to the PerkinElmer AlphaLISA SureFire Ultra p-ERK1/2 (Thr202/TYR 204) assay protocol. […] The plates were read on the EnVision Plate Reader to assess the pERK levels.
as §3

| EC50 [2] | EC50 [3] | Structure (SMILES) | release of pro-inflammatory cytokines, including IL-1β, TNFα, IL-6, and KC/GRO ([1]; induced by LPS activation) | ERK and AKT signaling pathways ([1]; primary rodent astrocytes) |
| --- | --- | --- | --- | --- |
| 0.9 nM | 2.42 nM | CC(C)Oc1ccc(-c2nc(-c3cccc4c3CC[C@@H]4NCCO)no2)cc1C#N [Ozanimod] | attenuated the release of pro-inflammatory cytokines | directly activated ERK and AKT signaling pathways |
| 0.49 nM | 0.87 nM | CC(C)Oc1ccc(-c2nc(-c3cccc4c3CCC4=O)no2)cc1C#N [Compound 1, 2-isopropoxy-5-(3-(1-oxo-2,3-dihydro-1H-inden-4-yl)-1,2,4-oxadiazol-5-yl)benzonitrile] | – | – |
